The text below walks through data of patent publication US20010051630A1, “Use of hydroxylamine derivatives, and method and preparations for increasing the tolerance of field crops against weather stresses” (priority 1997, published 2001).

Each structure is given as a SMILES string. Marks after values point to notes of the source that are not given here.

For experiment [1], the system named is Soybean seeds. Description: Pearling of soybean seeds, then CSVT. The class given is in vivo. Here is the method:
(§1) In this experiment the tolerance of maize, soybean and pepper seeds treated with the active agent against cold was tested. This test imposed temperature and oxygen deficiency stresses on the seeds and was carried out according to Barla-Szabó and Dolinka CSVT (Complex Stressing Vigour Test). For a single test, two hundred seeds were soaked for 48 hours at 25° C. and another 48 hours at 5° C in 150 ml distilled water containing the active agent in 10 mg/l concentration. Following the 96 hours of soaking, the seeds were further germinated between rolled wet paper for 96 hours at 25° C. There were 25 seeds in each roll, the rolls were placed vertically into containers and covered with a plastic bag in order to reduce evaporation. During the whole procedure the seeds were kept in darkness.
(§2) At the end of the experiment the number of normally developing and ungerminated seeds were recorded. The length of the normal seedlings was measured and the average length of the five longest seedlings was calculated. Seedlings longer than 0.33 times the average length of the five longest seedlings were considered to be of high vigour, and low vigour seedlings were shorter than this length.
Soybean seeds are treated with a pearling agent, which contains 1 mg/ml of N-[3-(1-piperidinyl)propoxy]-3-nitro-benzimidoyl-chloride monohydrochloride (Compound 3) in a 5% aqueous polyvinylalcohol solution. 100 seeds and 1 ml of pearling agent are filled into a glass vessel and while the vessel is rotated, the seeds are coated with the agent and then it is left to dry. For seeds treated this way, we obtained the following results when placed under the conditions of the CSVT test described in Example 7.

Experiment [2] relates to maize of high chilling tolerance (HT) population. Description: CSVT, maize population of high chilling tolerance (HT). It is filed as in vivo. The method, then:
as §1, §2
(§3) In the case of a further experiment with maize of low chilling tolerance (LT) and high chilling tolerance (HT) populations [Ref: P. Landi, E. Frascaroli, A. Lovato; EUPHYTICA 64 21-29 (1992)], the following positive effects were found (Table 3.).

The test system of experiment [3] is bean plants (cv. Seaway). Description: Drought tolerance of beans, part b (7 days hardening). It is filed as in vivo. The conditions noted are these: 7 days without water, 10 mg/liter and 100 mg/liter solution named, table does not say which. An excerpt: Based on the experiences of our preliminary experiments, the plants were hardened before the application of the active agent by withholding the water for a few days, until the first signs of withering appeared. Then the plants were watered and the active agent was either dissolved in the water, or sprayed to the plants directly. Afterwards, the plants were subjected to different periods of drought according to the given experiment, watered again, and after a week-long regeneration period, the survival ratio was determined.
b) In this experiment, bean plants (cv. Seaway) were hardened for 7 days instead of the 5 days described in Part a. Then a 10 mg/liter and 100 mg/liter concentration solution of the active agent was applied two times a day for two days. Then 7 days without water followed, and after a week-long regeneration period, the results of the experiment were evaluated.

Experiment [4] deals with soybean cv. Bólyi 44. Description: Drought tolerance of soybeans. The class given is in vivo. The following applies: 6 days hardening; 50 mg/liter in the water; 4 days without watering, one week regeneration. Here is the method: Soybeans of soybean cv. Bólyi 44 were hardened for 6 days by withholding the water. This was followed by two days of watering, and the active agent was applied in the water. The concentration of the solution of the active agent was 50 mg/liter. After a 4-day-long cease of watering and a one week regeneration period, the number of surviving plants was recorded.
Watering was ceased for 10 days for a certain group of plants in the experiment. It was observed that almost every plant perished. Each of the 4 surviving plants had previously been treated with the active agent.

For experiment [5], the system named is McCall soybeans. Description: CSVT, McCall soybeans. It is filed as in vivo, soybean. The method, then: as §1, §2
When applying the CSVT test, the following results were obtained (Table 4.).

The subject of experiment [6] is HMv09 inbred maize line. Description: CSVT, seeds soaked in active agent, HMv09 maize. It is filed as in vivo. The following applies: seeds soaked in 10 mg/l active agent. The method, then: as §1, with “darkness. At the end of the experiment the number of normally developing and ungerminated seeds were recorded. The length of the normal seedlings was measured and the average length of the five longest seedlings was calculated. Seedlings longer than 0.33 times the average length of the five longest seedlings were considered to be of high vigour, and low vigour seedlings were shorter than this length.” for “darkness.”

The subject of experiment [7] is green peppers. Nature of the experiment: CSVT, green peppers. It is filed as in vivo, pepper. The method, then:
as §1, §2
Under the circumstances of the CSVT test, they increased the length of the sprouts and the roots along with the proportion of the high vigour seedlings. […]

The subject of experiment [8] is Mo 17 inbred maize line. Description: CSVT (Complex Stressing Vigour Test), seeds soaked in active agent, Mo 17 maize. It is filed as in vivo. The following applies: seeds soaked in 10 mg/l active agent, * = significant vs control P < 0.05. Here is the method: as §1, with “darkness. At the end of the experiment the number of normally developing and ungerminated seeds were recorded. The length of the normal seedlings was measured and the average length of the five longest seedlings was calculated. Seedlings longer than 0.33 times the average length of the five longest seedlings were considered to be of high vigour, and low vigour seedlings were shorter than this length.” for “darkness.”

In experiment [9] the test system is maize of low chilling tolerance (LT) population. Nature of the experiment: CSVT, maize population of low chilling tolerance (LT). The class given is in vivo. Here is the method:
as §1, §2, §3

Experiment [10] has as its system bean cv. Seaway. Description: Frost tolerance of beans. The class given is in vivo. The conditions noted are these: watering, 10 mg/l; −2° C. for 8 hours. Here is the method:
Seedlings of bean cv. Seaway were cultivated under normal conditions for the first two weeks, then they were treated with 10 mg/liter and 100 mg/liter concentration solutions of the examined active agents 2 and 1 days before the initiation of the frost tolerance experiments. In the experiment, the plants were kept at −2° C. for 8 hours, then grew under normal conditions for I week, and the survival ratio was determined. 4 trays were used for each experiment and 6 seeds were planted in each tray.

The mark [11] stands for this setting: 100 seeds pearled with 1 ml of 1 mg/ml in 5% PVA.

With `Cl.O=[N+]([O-])c1cccc(C(Cl)=NOCCCN2CCCCC2)c1` [Compound 3, N-[3-(1-piperidinyl)propoxy]-3-nitro-benzimidoyl-chloride monohydrochloride], in [1] (setting [11]), the “Ratio of high vigour plants (%), root” value is 58* %. Besides, the “Ratio of high vigour plants (%), sprout” value in [1] (setting [11]) is on record as 63* %. Also, the “effect on ratio of high vigour plants and length of sprouts and roots” value in experiment [1] (PVA solution containing Compound 3 as pearling agent) was “increase the ratio of high vigour plants significantly”. Moreover, the “Ratio of high vigour plants %, HT” value in experiment [2] was 94* %. Moreover, the figures for the “Survival (%)” value in experiment [3], in experiment [4] and in experiment [10] were 39* %, 33* % and 40* %, respectively. Moreover, the “Ratio of high vigour plants (%)” value is 46* % in experiment [5], 40* % in experiment [6], 45* % in [7] and 28* % in experiment [8]. For the same compound, in [9], the “Ratio of high vigour plants %, LT” value is 88* %.
